# From patent publication US6787141B1, “Peptide having for fibrinogen fragment E activity, analogs, antibodies and uses thereof” (The University Court of The University of Aberdeen, priority 1999, dated 2004)
# B1: fibrin fragment E: fibrin fragment E, labelled with digoxygenin ester for detection (protein)
# chain 1: GPRVVERHQSACKDSDWPFCSDEDWNYKCPSGCRMKGLIDEVNQDFTNRINKLKNSLFEYQK
# chain 2: GHRPLDKKREEAPSLRPAPPPISGGGYRARPAKAAATQKKVERKAPDAGGCLHADPDLGVLCPTGCQLQEALLQQERPIRNSVDELNNNVEAVSQTSSSSFQYMYLLK
# chain 3: YVATRDNCCILDERFGSYCPTTCGIADFLSTYQTKVDKDLQSLEDILHQVENKTSEVKQLIK
# What was measured:
# [1] = system: chick chorioallantoic membrane (CAM); experiment: chick chorioallantoic membrane (CAM) cell proliferation assay (DNA synthesis, tritiated thymidine); type: in vivo
# Description: Cell proliferation was measured using the chick chorioallantoic membrane (CAM) model as described previously (4, 29, 30).The assay used is based on quantitative measurement of DNA synthesis in the CAM after exposure to control and test substances 18 h after application in liquid form to the whole “dropped” area of each CAM (4, 29). This assay is a measure of changes in CAM vascularity (30).
# The rabbit and rat antisera were mixed with active fibrin degradation products. These were applied to the chick CAM with a positive control (fibrin degradation products) and a negative control (the antibody alone). The CAM was processed for incorporation of tritiated thymidine.
# The rabbit antisera were then tested for ability to block the stimulatory activity of human FDP on the chick CAM model. The assay used was based on quantitative measurement of DNA synthesis in the CAM after exposure to control and test substances 18 h after application in liquid form to the whole “dropped” area of each CAM (4,29). This assay is a measure of changes in CAM vascularity (30). Anti phage antisera, raised by relatively short term immunisation of rabbits, were used at a 1/2 dilution and admixed with FDP used at a concentration of approximately 1.95 mg/ml diluted before use to 1/10. Controls included buffer only and antiserum only groups of CAMs. After filter sterilisation, 0.3 ml was added onto each CAM dropped surface.
# [2] = system: Chick fibroblasts, Cos7, mouse 3T3 and human embryonic lung cells (HEL); experiment: cell binding assays; type: cell-based; conditions: each of the cell types; 6 hours at 37° C.
# Description: Chick fibroblasts, Cos7, mouse 3T3 and human embryonic lung cells (HEL) were cultured in a 25 cm^2 flask (Nunc) until confluent (approximately 3×10^6 cells). The cells were trypsinised and resuspended at concentration of 1.3×10^5 cells/ml. 200 μl of this cell suspension was added to each well of a 96 well culture plate (Nunc). The cells were incubated overnight at 37° C. to allow adherence and recovery. The cells were then divided into three sections, digoxygenin controls, PBS controls and digoxygenin labelled fragment E tests. Increasing concentrations of digoxygenin and digoxygenin labelled fibrin fragment E were applied from 0-30 mg per well. The plates were incubated for 6 hours at 37° C. under culture conditions.
# The plates were emptied of media and washed three times with PBS. The cells were then incubated for 2 hours with sheep antidigoxygenin alkaline phosphatase and developed with p-nitrophenyl phosphate in bicarbonate buffer pH 9.8. The plates were read on a Titertek Multiscan plate reader at 405 nm.
# Chick fibroblasts = experiment: cell immunohistochemistry; type: cell-based; conditions: 2 hours exposure
# Description: Chick fibroblasts were cultured in a 25 cm^2 flask (Nunc) until confluent (approximately 3×10^6 cells). The cells were washed in PBS and then trypsinised and diluted to 3×10^5 cells per ml in Dulbecco modified medium with 10% foetal calf serum. […] of the cells suspension was plated into each well of a Nunc culture well slide. The cells were incubated overnight to allow adhesion and recovery from the passaging. Digoxygenin labelled fibrin fragment E was added to a final concentration of 8 mg per ml. Control wells contained unconjugated digoxygenin and PBS.
# The cells were rinsed after 2 hours with PBS then washed 3 times in TBS followed by one wash in distilled water. The cells were then incubated for 2 hours with sheep anti-digoxygenin alkaline phosphatase. The slides were then washed three times in TBS and developed with NBT and BCIP in bicarbonate buffer pH 9.8. The slides were air dried and then mounted for observation of membrane staining under the microscope.
Molecule,"inhibition of the stimulatory effect of FDP ([1]; FIG. 4 legend, concentration not given)",inhibition of FDP induced cell proliferation ([1]; peptide at 7.5 μg/ml),inhibition of FDP induced cell proliferation ([1]; peptide at 15 μg/ml),binding to cells (absorbance at 405 nm compared to control preparations) [2],binding to cells (membrane staining) (Chick fibroblasts)
CRAHSFGSPRPLPVV [WTM110],inhibits,little inhibition,inhibition was demonstrated with cell proliferation reduced to control level,–,–
B1,–,–,–,high absorbance,shown to bind
